Assay results published in patent publication US20080249080A1, “Benzodiazepine Derivatives and Uses Thereof on Medical Field” (priority 2005, published 2008).

Legend:
K562 cell line [1] = experiment: DNA fragmentation, K562 leukemic cell line; type: cell-based, human; settings: 10 μM, 24 and 48 hours, FIGS. 18, 20, 21
Method: (§1) Subsequently, the same cell lines, except OVCAR3, were tested with fourteen new synthetic compounds at 10 μM concentration for 24 and 48 hours: eleven induced the expected cellular death.

[2] = tested on: ARO anaplastic thyroid carcinoma cell line; experiment: DNA fragmentation, ARO; type: cell-based, human; settings: 10 μM, 24 and 48 hours
Method: (§2) The authors also have tested compounds according to the invention, in particular RS-678 and RS-779 compounds, also on OVCAR3 ovary carcinoma cell lines, ARO anaplastic thyroid and NPA papillary thyroid human carcinoma cell lines.
as §1

[3] = tested on: NPA papillary thyroid carcinoma cell line; experiment: DNA fragmentation, NPA; type: cell-based, human; settings: 10 μM, 24 and 48 hours
Method: as §2, §1

[4] = tested on: mixed lymphocytic cultures from marrow or peripheral blood of patients suffering from chronic myelogenous leukemia; experiment: DNA fragmentation, mixed lymphocytic cultures of CML patients; type: cell-based, human; settings: samples from patients (some Glivec resistant); 10 μM; 24, 48 and 72 hours; FIGS. 12-14
HL-60 and Jurkat cells = settings: laboratory experiments; cited from earlier work
ARO cell line = experiment: Percentage of dead cells, ARO; type: cell-based, human; settings: after 24 hours
NPA cell line = experiment: Percentage of apoptosis, NPA; type: cell-based, human; settings: after 24 hours
K562 cell line [5] = experiment: Percentage of apoptosis, K562; type: cell-based, human; settings: after 24 hours
[6] = tested on: tested cell lines (K562, ARO, NPA); experiment: Relative cellular death in the tested cell lines; type: cell-based, human
Method: as §1

K562 cell line [7] = experiment: DNA fragmentation, K562 leukemic cell line; type: cell-based, human; settings: 5, 10, 15 μM, 8, 16 and 24 hours, FIG. 1 A, B
[8] = tested on: RET/C634R and RET/M918T mutants; settings: cited from earlier work
[9] = tested on: RET/E768D, RET/L790F, RET/Y791F, RET/A883F and RET/S891A mutants; settings: cited from earlier work
[10] = tested on: RET/V804L and RET/V804M mutants; settings: cited from earlier work

| Compound | DNA fragmentation (K562 cell line [1]) | DNA fragmentation [2] | DNA fragmentation [3] | further results |
| --- | --- | --- | --- | --- |
| COC(=O)CC1c2cccn2N(C)c2ccccc2N1C(=O)c1ccccc1 (stereo not drawn) [RS-337, methyl 10,11-dihydro-5-methyl-10-benzoyl-5H-pyrrolo[1,2-b][1,2,5]-benzotriazepine-11-acetate] | DNA fragmentation | DNA fragmentation | DNA fragmentation | – |
| CCOC(=O)CC1Nc2ccccc2S(=O)(=O)n2cccc21 (stereo not drawn) [RS-752, ethyl 10,11-dihydropyrrolo[1,2-b][1,2,5]benzothiadiazepine-11-acetate 5,5-dioxide] | DNA fragmentation | DNA fragmentation | DNA fragmentation | DNA fragmentation [4]: DNA fragmentation |
| COc1cccc2c1C(=O)c1c(O)c3c(c(O)c1C2=O)C[C@@](O)(C(C)=O)C[C@@H]3O[C@H]1C[C@H](N)[C@H](O)[C@H](C)O1 [daunoribucin] | – | – | – | induction of apoptosis (HL-60 and Jurkat cells): able to induce apoptosis |
| CCOC(=O)CC1c2cccn2S(=O)(=O)c2ccccc2N1C(=O)c1ccc(F)cc1 (stereo not drawn) [RS-2652, ethyl 10,11-dihydro-10-(4-fluorobenzoyl)pyrrolo[1,2-b][1,2,5]benzothiadiazepine-11-acetate 5,5-dioxide] | DNA fragmentation | DNA fragmentation | DNA fragmentation | – |
| CCOC(=O)C1c2cccn2S(=O)(=O)c2ccccc2N1C(=O)c1cccc2ccccc12 (stereo not drawn) [RS-2631, ethyl 10,11-dihydro-10-(1-naphtoyl)pyrrolo[1,2-b][1,2,5]benzo-thiadiazepine-11-carboxylate 5,5-dioxide] | DNA fragmentation | DNA fragmentation | DNA fragmentation | – |
| CCOC(=O)C1c2cccn2S(=O)(=O)c2ccccc2N1C(=O)c1ccc(Cl)cc1 (stereo not drawn) [RS-2630, ethyl 10,11-dihydro-10-(4-chlorobenzoyl)pyrrolo[1,2-b][1,2,5]benzothiadiazepine-11-carboxylate 5,5-dioxide] | DNA fragmentation | DNA fragmentation | DNA fragmentation | percentage of dead cells (ARO cell line): approximately 60%; percentage of apoptosis (NPA cell line): 80%; percentage of apoptosis (K562 cell line [5]): 85%; cellular death relative to other compounds [6]: greater cellular death |
| CCOC(=O)CC1c2cccn2S(=O)(=O)c2ccccc2N1C(=O)c1cccc2ccccc12 (stereo not drawn) [RS-2661, ethyl 10,11-dihydro-10-(1-naphtoyl)pyrrolo[1,2-b][1,2,5]benzothiadiazepine-11-acetate 5,5-dioxide] | DNA fragmentation | DNA fragmentation | DNA fragmentation | – |
| CC[C@@]1(O)C(=O)OCc2c1cc1n(c2=O)Cc2cc3ccccc3nc2-1 [camptothecin] | – | – | – | induction of apoptosis (HL-60 and Jurkat cells): able to induce apoptosis |
| CCOC(=O)C1c2cccn2S(=O)(=O)c2ccccc2N1C(=O)c1ccc(F)cc1 (stereo not drawn) [RS-2632, ethyl 10,11-dihydro-10-(4-fluorobenzoyl)pyrrolo[1,2-b][1,2,5]benzothiadiazepine-11-carboxylate 5,5-dioxide] | DNA fragmentation | DNA fragmentation | DNA fragmentation | – |
| O=C(OC(c1ccc(Cl)cc1)C1Nc2ccccc2S(=O)(=O)n2cccc21)c1ccccc1 (stereo not drawn) [RS-786, 11-(4-Chlorophenybenzoyloxymethylene)10,11-dihydro pyrrolo[1,2-b][1,2,5]benzothiadiazepine 5,5-dioxide] | not present | not present | not present | – |
| CCOC(=O)C1c2cccn2S(=O)(=O)c2ccccc2N1C(=O)c1ccccc1 (stereo not drawn) [RS-2629, ethyl 10,11-dihydro-10-(benzoyl)pyrrolo[1,2-b][1,2,5]benzo-thiadiazepine-11-carboxylate 5,5-dioxide] | DNA fragmentation | DNA fragmentation | DNA fragmentation | percentage of dead cells (ARO cell line): approximately 60%; percentage of apoptosis (NPA cell line): 80%; percentage of apoptosis (K562 cell line [5]): 85%; cellular death relative to other compounds [6]: greater cellular death |
| COc1cc([C@@H]2c3cc4c(cc3[C@@H](O[C@@H]3O[C@@H]5CO[C@@H](C)O[C@H]5[C@H](O)[C@H]3O)[C@H]3COC(=O)[C@H]23)OCO4)cc(OC)c1O [etoposide] | – | – | – | induction of apoptosis (HL-60 and Jurkat cells): able to induce apoptosis |
| CCOC(=O)CC1c2cccn2S(=O)(=O)c2ccccc2N1C(=O)c1ccccc1 (stereo not drawn) [RS-2645, ethyl 10,11-dihydro-10-(benzoyl)pyrrolo[1,2-b][1,2,5]benzo-thiadiazepine-11-acetate 5,5-dioxide] | DNA fragmentation | DNA fragmentation | DNA fragmentation | cellular death relative to other compounds [6]: greater cellular death |
| O=S1(=O)c2ccccc2NC(CO)c2cccn21 (stereo not drawn) [RS-750, 10,11-dihydropyrrolo [1,2-b][1,2,5]benzothiadiazepine-11-methanol 5,5-dioxide] | not present | not present | not present | – |
| O=C(O)CC1Nc2ccccc2S(=O)(=O)n2cccc21 (stereo not drawn) [RS-761, 10,11-dihydropyrrolo[1,2-b][1,2,5]benzothiadiazepine-11-acetic 5,5-dioxide acid] | not present | not present | not present | – |
| O=C(O)C1Nc2ccccc2S(=O)(=O)n2cccc21 (stereo not drawn) [RS-735, 10,11-dihydropyrrolo[1,2-b][1,2,5]benzothiadiazepine-11-carboxylic 5,5-dioxide acid] | not present | not present | not present | apoptosis / DNA fragmentation (K562 cell line [7]): not able to produce the DNA fragmentation |
| COc1cccc2c1C(=O)c1c(O)c3c(c(O)c1C2=O)C[C@@](O)(C(=O)CO)C[C@@H]3O[C@H]1C[C@H](N)[C@H](O)[C@H](C)O1 [doxorubicin] | – | – | – | induction of apoptosis (HL-60 and Jurkat cells): able to induce apoptosis |
| CCOC(=O)CC1c2cccn2S(=O)(=O)c2ccccc2N1C(=O)c1ccc(Cl)cc1 (stereo not drawn) [RS-2660, ethyl 10,11-dihydro-10-(4-chlorobenzoyl)pyrrolo[1,2-b][1,2,5]benzothiadiazepine-11-acetate 5,5-dioxide] | DNA fragmentation | DNA fragmentation | DNA fragmentation | – |
| COC(=O)CC1c2cccn2N(C)c2ccccc2N1C(=O)c1ccc(OC)cc1 (stereo not drawn) [RS-421, methyl 10,11-dihydro-5-methyl-10-(4-metoxybenzoyl)-5H-pyrrolo[1,2-b][1,2,5]-benzotriazepine-11-acetate] | DNA fragmentation | DNA fragmentation | DNA fragmentation | – |
| Cc1ccc(-c2nn(C(C)(C)C)c3ncnc(N)c23)cc1 [PP1] | – | – | – | block of the transforming activity [8]: able to block; inhibition of in vivo self-phosphorylation [9]: inhibited effectively; sensitivity to the action of inhibitors [10]: less sensitive |
